Laboratory results reported in patent US20180272034A1, “USE OF CSA COMPOUNDS TO PREVENT MICROBIAL BUILD-UP OR FOULING OF MEDICAL IMPLANTS” (BRIGHAM YOUNG UNIVERSITY, priority 2017, published 2018).

Tests used:
[1] = tested on: Candida auris isolates; assay: Antifungal MIC, CLSI M27-A3; type: cell-based
Experimental: The antifungal effectiveness of CSA-131 was tested against 100 Candida auris isolates. The C. auris isolates were from all over the world and covered known C. auris clades. The selection included isolated known to have elevated MIC values against fluconazole, the echinocandins, and/or amphotericin B.
Testing was performed according to the standards of the Clinical and Laboratory Standards Institute reference methodology M27-A3 (as of 2017). CSA-131 was dissolved in DMSO and diluted as described in M27-A3 to give a final DMSO concentration of <1%. Dilution plates were stored at −70° C. until used and were used within one week of being produced. All results were read visually after 24 hours of incubation at the lowest drug concentration at which there was a 50% decrease in growth by visual inspection. Quality control isolates C. parapsilosis ATCC 22019 and C. krusei ATCC 6258 were included on each day of testing although there are no standard QC values for these isolates against this compound. The MIC values for ATCC 22019 and ATCC 6258 remained within a tight range of 1-2 dilutions over the course of the study.

[2] = tested on: Pseudomonas aeruginosa; assay: Log10 reduction, coated PVC endotracheal tube segments and media; type: cell-based; settings: CSA-131 polymer coating about 39.4 μg/cm^2 vs uncoated, 24 hours
Experimental: Segments of polyvinyl chloride (PVC) endotracheal tubes measuring 3 cm in length were placed in wells of a 6 well plate. 7 ml of inoculum were placed in each well. Testing was repeated in triplicate for each test article. The samples were placed on a rotary shaker (110 revolutions per minute) and incubated at 37±2° C. for 24 hours. At the end of 24 hours the bacteria in the inoculum were characterized via serial dilution, plating, and counting. The endotracheal tube segment was also removed and neutralized. After neutralization, the adherent biofilm biomass was removed and characterized via serial dilution, plating, and counting.
As the number of viable organisms recovered from the treated catheters is expected to be low, a membrane filtration method provides an appropriate analysis for counting recovered organisms. The remaining recovery solution was filtered through a 0.45 μm filter membrane. Filters were placed on TSA/SDA/NA/TSBA plates and incubated at 37±2° C. and counted after sufficient incubation.
The log reduction is calculated by determining the Log10 difference between uncoated devices and associated media and coated devices (using a polymer coating including CSA-131 at about 39.4 μg/cm^2) and associated media. The log reduction is calculated as follows:
Log reduction(Media)=Control Log10(CFU/ml)−Test Log10(CFU/ml)
Log10(CFU/ml)=Log10(CFU/ml+1)
Log reduction(Device)=Control Log10(CFU/device)−Test Log10(CFU/device)
Log10(CFU/device)=Log10(CFU/device+1)

[3] = 100 C. auris isolates, 50% decrease in growth, 24 hours
[4] = fluconazole Resistant isolates, 69
[5] = fluconazole Susceptible isolates, 30
[6] = isolates with elevated echinocandin MICs, 7

CCCCCCCCCCCCNCCC[C@@H](C)[C@H]1CC[C@H]2[C@@H]3[C@H](OCCCN)C[C@@H]4C[C@H](OCCCN)CC[C@]4(C)[C@H]3C[C@H](OCCCN)[C@]12C.Cl.Cl.Cl.Cl [CSA-131]
1 mg/L: MIC50 [1, 3] | MIC90 [1, 3] | MIC Mode [1, 3] | MIC50 ([1]; Clade 1, 47 isolates) | MIC90 ([1]; Clade 1, 47 isolates) | MIC Mode ([1]; Clade 1, 47 isolates) | MIC50 ([1]; Clade 2, 11 isolates) | MIC90 ([1]; Clade 2, 11 isolates) | MIC Mode ([1]; Clade 2, 11 isolates) | MIC50 ([1]; Clade 3, 39 isolates) | MIC90 ([1]; Clade 3, 39 isolates) | MIC Mode ([1]; Clade 3, 39 isolates) | MIC90 ([1]; Clade 4, 3 isolates) | MIC50 [1, 4] | MIC90 [1, 4] | MIC Mode [1, 4] | MIC90 [1, 5] | MIC50 [1, 6] | MIC90 [1, 6] | MIC Mode [1, 6]
9.58: Log10 Reduction Total ([2]; ATCC 10752 (clinical))
7.58: Log10 Reduction Device ([2]; ATCC 27853)
9.86: Log10 Reduction Media ([2]; ATCC 10752 (clinical))
showed activity against all C. auris: activity against C. auris collection ([1]; 100 isolates, 4 clades)
8.62: Log10 Reduction Total ([2]; ATCC 27853)
7.00: Log10 Reduction Total ([2]; PA14 (clinical))
9.15: Log10 Reduction Media ([2]; ATCC 27853)
0.5 mg/L: MIC50 ([1]; Clade 4, 3 isolates) | MIC Mode ([1]; Clade 4, 3 isolates) | MIC50 [1, 5]
0.5 to 1 µg/mL: MIC Range ([1]; Clade 1, 47 isolates) | MIC Range ([1]; Clade 2, 11 isolates) | MIC Range ([1]; Clade 3, 39 isolates) | MIC Range ([1]; Clade 4, 3 isolates) | MIC Range [1, 4] | MIC Range [1, 5]
61: No. of Isolates at MIC 1 ([1]; 100 C. auris isolates)
7.24: Log10 Reduction Media ([2]; PA14 (clinical))
7.32: Log10 Reduction Device ([2]; ATCC 10752 (clinical))
0.5-1: MIC Range ([1]; 100 C. auris isolates, 50% decrease in growth, 24 hours, in µg/mL) | MIC Range ([1]; isolates with elevated echinocandin MICs, 7, in µg/mL)
39: No. of Isolates at MIC 0.5 ([1]; 100 C. auris isolates)
5.81: Log10 Reduction Device ([2]; PA14 (clinical))
0: No. of Isolates at MIC 0.016 ([1]; 100 C. auris isolates) | No. of Isolates at MIC 0.03 ([1]; 100 C. auris isolates) | No. of Isolates at MIC 0.0625 ([1]; 100 C. auris isolates) | No. of Isolates at MIC 0.125 ([1]; 100 C. auris isolates) | No. of Isolates at MIC 0.25 ([1]; 100 C. auris isolates) | No. of Isolates at MIC 2 ([1]; 100 C. auris isolates) | No. of Isolates at MIC <0.016 ([1]; 100 C. auris isolates) | No. of Isolates at MIC >2 ([1]; 100 C. auris isolates)
